Usually ED50 stands for the dose at which the effect has come halfway, by size or by number of responders.

In assay [1] the test system is amphetamine induced behavioural stereotypies. Kind of assay: Anti-amphetamine test: inhibition of compulsory gnawing and chewing responses to amphetamine. The conditions noted are these: Rattus norvegicus, sc, read-out: ED50, Anti-amphetamine test. It counts as in vivo, Sprague Dawley female rats. As to the method:
Conventional types of neuroleptics are potent inhibitors of amphetamine induced behavioural stereotypies. One determines in Sprague Dawley female rats the ability of subcutaneously administered compounds to inhibit compulsory gnawing and chewing responses to a subcutaneous dose of 10 mg/kg of amphetamine administered half an hour after the compound to be tested. The new compounds of formula I are weak antagonists in this test.
(§1) The ED50 -values expressed in milligrams per kilogram body weight in the anti-amphetamine test, in the anti-apomorphine test and in the inhibition of aggression test are presented in Table I.

Assay [2] concerns apomorphine induced emesis. Nature of the assay: Anti-apomorphine test: antagonism of apomorphine induced emesis. Format: in vivo, dogs. The conditions noted are these: Canis lupus familiaris, sc, read-out: ED50, Anti-apomorphine test. As to the method: All typical chloropromazine-like neuroleptics are powerful antagonists of apomorphine induced emesis in dogs by virtue of their blocking action on the chemo-emetic trigger zone. The compounds listed in Table I were administered subcutaneously. The animals were challenged half an hour after subcutaneous administration with a standard dose of 0.06 mg/kg of apomorphine hydrochloride (subcutaneously). […] The ED50 -values expressed in milligrams per kilogram body weight in the anti-amphetamine test, in the anti-apomorphine test and in the inhibition of aggression test are presented in Table I.

Assay [3] deals with isolation induced aggressive behaviour. Nature of the assay: Isolation induced aggressive behaviour test (inhibition of aggression). Format: in vivo, Male albino mice. Particulars: Mus musculus, sc, 1 h, read-out: ED50, Inhibition aggression test. As to the method:
Male albino mice were used. Tests were conducted 60 minutes after subcutaneous drug administration.
as §1

Assay [4] has as its system acetylcholine induced contraction of guinea pig ileum. Kind of assay: Anticholinergic activity: acetylcholine induced contraction of guinea pig ileum. The conditions noted are these: acetylcholine 0.02 μg/ml, 50% inhibition of the contraction.
The subject of assay [5] is histamine induced contraction of guinea pig ileum. Nature of the assay: Antihistaminic activity: histamine induced contraction of guinea pig ileum. Particulars: histamine 0.2 μg/ml, 50% inhibition of the contraction.
Assay [6] relates to serotonin induced contraction of the rat ileum. Nature of the assay: Antiserotoninergic activity: serotonin induced contraction of the rat ileum. The conditions noted are these: serotonin 220 ng/ml, 50% inhibition of the contraction.
Procedure: They show antiserotoninergic activity evaluated from the effects on serotonin (220 ng/ml) induced contraction of the rat ileum.
Setting [7] is: male albino mice, 60 minutes after subcutaneous administration.

Each structure is given as a SMILES string. Values after ≈ are worked out from the molar mass of the structure shown. Read-outs that look alike come from different tables or passages of the source. A value given as a limit tells only on which side of the number the result lay.

Consider `CN(C)CCCN1c2ccccc2Sc2ccc(Cl)cc21` [Chlorpromazine, chlorpromazine], for which the ED50 is 1.2 mg/kg in assay [1], 0.7 mg/kg in assay [2] and 0.4 mg/kg in assay [3]. In addition, in assay [4], the “ED50, Anticholinergic activity” value is recorded as 1,7 μg/ml. Moreover, the “ED50, Antihistaminic activity” value in assay [5] is recorded as 0,03 μg/ml. Moreover, the “ED50, Antiseroto-ninergic activity” value in assay [6] was found to be 6 µg/mL (≈ 18.8 µM).
For the compound `O=C(CCCN1CCC(O)(c2ccc(Cl)cc2)CC1)c1ccc(F)cc1` [Haloperidol, haloperidol], the 50% effective dose (ED50) stood at 0.03 mg/kg in assay [1] and 0.8 mg/kg in assay [3].
As to `COc1cc(C(C)=O)ccc1OCCCN1CCC(O)(C(=O)c2ccc(F)cc2)CC1` [I, 1-[3-(p-acetyl-o-methoxyphenoxy)-propyl]-4-(p-fluorobenzoyl)-4-hydroxypiperidine], the ED50 came to 20 mg/kg in assay [1] (rats, subcutaneous, half an hour before 10 mg/kg amphetamine s.c.); 7.1 mg/kg in assay [2] (dogs, subcutaneous, half an hour before 0.06 mg/kg apomorphine hydrochloride s.c.); 0.5 mg/kg in assay [3] (setting [7]). Moreover, the “ED50, Anticholinergic activity” value in assay [4] is more than 100 µg/mL. Further, the “ED50, Antihistaminic activity” value in assay [5] is recorded as 0,06 μg/ml. The “ED50, Antiseroto-ninergic activity” value in assay [6] was 0,1 μg/ml.
Regarding `CCC(=O)OC1(C(=O)c2ccc(F)cc2)CCN(CCCOc2ccc(C(C)=O)cc2OC)CC1` [III], the ED50 in assay [3] (setting [7]) stood at 2 mg/kg.
As to `COc1cc(C(C)=O)ccc1OCCCCN1CCC(O)(C(=O)c2ccc(F)cc2)CC1` [II], the ED50 in assay [3] (setting [7]) was determined as 1.5 mg/kg.
